The experiment deals with P388 leukemia ip, CD2F1 mice, survival T/C. Kind of experiment: NCI In Vivo Anticancer Drug Screen. Data for tumor model P388 Leukemia (intraperitoneal) in CD2F1 (CDF1) mice. The conditions noted are these: endpoint: median survival time, higher = longer survival. An outline of the steps:
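Mice carrying the transplanted tumor received test compound or vehicle. Survival was recorded in each group, and the value is the treated-group measurement divided by that of the vehicle-treated control group.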

Setting [1] is: dose: 50.0 mg/kg/injection, schedule: Q01DX005 (ip), vehicle: Klucel (hydroxypropylcellulose) (HPC).
Where [2] appears, read: dose: 100.0 mg/kg/injection, schedule: Q01DX005 (ip), vehicle: Klucel (hydroxypropylcellulose) (HPC).
Where [3] appears, read: dose: 200.0 mg/kg/injection, schedule: Q01DX005 (ip), vehicle: Klucel (hydroxypropylcellulose) (HPC).
Setting [4] is: dose: 12.5 mg/kg/injection, schedule: Q01DX005 (ip), vehicle: saline with Tween-80.
Setting [5] is: dose: 25.0 mg/kg/injection, schedule: Q01DX005 (ip), vehicle: saline with Tween-80.
The mark [6] stands for this setting: dose: 50.0 mg/kg/injection, schedule: Q01DX005 (ip), vehicle: saline with Tween-80.
Where [7] appears, read: dose: 100.0 mg/kg/injection, schedule: Q01DX005 (ip), vehicle: saline with Tween-80.

Values joined by “and” are separate entries in the source; they are usually repeats but may differ in a detail not shown here. Equal entries are not always repeated. Inconclusive results and toxic doses are left out. Numbered stars: 1 amine (or outer) side, 2 acyl side, 3 side chain; on linkers, the order of the positions; unused ones are H or OH. Bridge positions count the residues as written; N and C are the ends. Square brackets hold non-standard residues; d marks the D form. Peptide text beside a SMILES is read from it. I, II: the chains in the order shown. Actinocin(1to9) = Cc1c2oc3c(C)ccc(C(=O)[*:2])c3nc-2c(C(=O)[*:1])c(N)c1=O; X9 = C=CCC(O[*:1])C(=O)[*:2]; NMeV = CN[CH](C(=O)O)C(C)C; NMeA = CN[CH](C)C(=O)O; Aze = O=C(O)[CH]1CCN1; βAla = NCCC(=O)O; Sar = CNCC(=O)O

As for `Cc1c2oc3c(C)ccc(C(=O)NC4C(=O)NC(C(C)C)C(=O)N5CCCC5C(=O)N(C)CC(=O)N(C)C(C(C)C)C(=O)OC4C)c3nc-2c(C(=O)NC2C(=O)NC(C(C)C)C(=O)N3CCC3C(=O)N(C)CC(=O)N(C)C(C(C)C)C(=O)OC2C)c(N)c1=O` (stereo not drawn) (I: TV[Aze][Sar][NMeV] / II: TVP[Sar][NMeV]; ester I:1-I:C, II:1-II:C; linker I:N-II:N via Actinocin(1to9); configuration not given here), the T/C runs as follows: (dose: 0.05 mg/kg/injection, schedule: Q01DX009 (ip), vehicle: water) 214 % of control; (dose: 0.08 mg/kg/injection, schedule: Q04DX003 (ip), vehicle: saline) 96 % of control; (dose: 0.15 mg/kg/injection, schedule: Q04DX003 (ip), vehicle: saline) 102 % of control; (dose: 0.3 mg/kg/injection, schedule: Q04DX003 (ip), vehicle: saline) 105 % of control; (dose: 12.5 micrograms/kg/injection, schedule: Q01DX009 (ip), vehicle: saline) 123 % of control; (dose: 12.5 micrograms/kg/injection, schedule: Q01DX009 (ip), vehicle: water) 167 % of control. Also, the T/C (dose: 19.4 micrograms/kg/injection, schedule: Q01DX009 (ip), vehicle: saline + alcohol) was 150 % of control; the T/C (dose: 25.0 micrograms/kg/injection, schedule: Q01DX009 (ip), vehicle: water) is 200 % of control; the T/C (dose: 32.4 micrograms/kg/injection, schedule: Q01DX009 (ip), vehicle: saline + alcohol) is 165 % of control; the T/C (dose: 50.0 micrograms/kg/injection, schedule: Q01DX009 (ip), vehicle: saline) was 155 % of control; the T/C (dose: 50.0 micrograms/kg/injection, schedule: Q01DX009 (ip), vehicle: water) was 266 % of control; the T/C (dose: 54.0 micrograms/kg/injection, schedule: Q01DX009 (ip), vehicle: saline + alcohol) was 177 % of control. Moreover, the T/C (dose: 90.0 micrograms/kg/injection, schedule: Q01DX009 (ip), vehicle: saline + alcohol) was 186 % of control; the T/C (dose: 100.0 micrograms/kg/injection, schedule: Q01DX009 (ip), vehicle: saline) is 171 % of control; the T/C (dose: 100.0 micrograms/kg/injection, schedule: Q01DX009 (ip), vehicle: water) is 89 % of control; the T/C (dose: 150.0 micrograms/kg/injection, schedule: Q01DX009 (ip), vehicle: saline + alcohol) is 238 % of control; the T/C (dose: 200.0 micrograms/kg/injection, schedule: Q01DX009 (ip), vehicle: saline) is 250 % of control; the T/C (dose: 250.0 micrograms/kg/injection, schedule: Q01DX009 (ip), vehicle: saline + alcohol) was 100 % of control. Besides, where the note is “dose: 400.0 micrograms/kg/injection, schedule: Q01DX009 (ip), vehicle: saline”, the T/C is 86 % of control.

Regarding `CNC(=S)N/N=C(C)/C=C/c1ccccc1`, the T/C by setting is: under setting [1], 107 % of control; under setting [2], 101 % of control; under setting [3], 101 % of control.

For the compound `CCOP(=O)(CSc1ccccc1)NC1CCCCC1` (stereo not drawn), the T/C (dose: 25.0 mg/kg/injection, schedule: Q01DX005 (ip), vehicle: Klucel (hydroxypropylcellulose) (HPC)) was 94 % of control; the T/C under setting [1] is 94 % of control; the T/C under setting [2] was 88 % of control.

Turning to `Clc1nc(C(Cl)Cl)nc2sc3c(c12)CCCC3`, the T/C reads like this: (dose: 60.0 mg/kg/injection, schedule: Q01DX005 (ip), vehicle: saline with Tween-80) 98 % of control; (dose: 120.0 mg/kg/injection, schedule: Q01DX005 (ip), vehicle: saline with Tween-80) 94 % of control; (dose: 240.0 mg/kg/injection, schedule: Q01DX005 (ip), vehicle: saline with Tween-80) 96 % of control.

As to `CCOC(=O)c1cnc2c(C)ccc(C)c2c1Nc1ccc2c(c1)OCO2`, the T/C by setting is: (dose: 60.0 mg/kg/injection, schedule: Q01DX005 (ip), vehicle: Klucel + Tween-80) 92 % of control; (dose: 120.0 mg/kg/injection, schedule: Q01DX005 (ip), vehicle: Klucel + Tween-80) 90 % of control; (dose: 240.0 mg/kg/injection, schedule: Q01DX005 (ip), vehicle: Klucel + Tween-80) 91 % of control.

With `Oc1ccc(/C=C/c2cc(O)cc(O)c2)cc1`, the T/C runs as follows: (dose: 18.5 mg/kg/injection, schedule: Q01DX009 (ip), vehicle: Klucel (hydroxypropylcellulose) (HPC)) 101 % of control; (dose: 37.0 mg/kg/injection, schedule: Q01DX009 (ip), vehicle: Klucel (hydroxypropylcellulose) (HPC)) 100 % of control; (dose: 74.0 mg/kg/injection, schedule: Q01DX009 (ip), vehicle: Klucel (hydroxypropylcellulose) (HPC)) 93 % of control.

As for `O=C(Nc1cccnc1)c1ccccc1`, the T/C (dose: 6.25 mg/kg/injection, schedule: Q01DX009 (ip), vehicle: saline with Tween-80) is 100 % of control; the T/C (dose: 12.5 mg/kg/injection, schedule: Q01DX009 (ip), vehicle: saline with Tween-80) is 100 % of control; the T/C (dose: 25.0 mg/kg/injection, schedule: Q01DX009 (ip), vehicle: saline with Tween-80) was 100 % of control.

As to `O=S(=O)(NCCSSCCNS(=O)(=O)c1ccc(Cl)cc1)c1ccc(Cl)cc1`, the T/C runs as follows: (dose: 50.0 mg/kg/injection, schedule: Q01DX009 (ip), vehicle: Klucel (hydroxypropylcellulose) (HPC)) 92 % of control; (dose: 100.0 mg/kg/injection, schedule: Q01DX009 (ip), vehicle: Klucel (hydroxypropylcellulose) (HPC)) 91 % of control; (dose: 200.0 mg/kg/injection, schedule: Q01DX009 (ip), vehicle: Klucel (hydroxypropylcellulose) (HPC)) 88 % of control.

Take `C=CCC1OC(=O)CCNC(=O)C(C)N(C)C(=O)C(C(C)C)N(C)C(=O)C(C(C)CC)NC(=O)C2CCCN2C1=O` (stereo not drawn) (cyclo([X9]PI[NMeV][NMeA][βAla]); configuration not given here): the T/C was 94 % of control (dose: 1.56 mg/kg/injection, schedule: Q01DX005 (ip), vehicle: water); 95 % of control (dose: 3.12 mg/kg/injection, schedule: Q01DX005 (ip), vehicle: water); 101 % of control (dose: 6.25 mg/kg/injection, schedule: Q01DX005 (ip), vehicle: water); 104 % of control (dose: 12.5 mg/kg/injection, schedule: Q01DX005 (ip), vehicle: water).

As to `NC(=O)c1[nH]c(=O)[nH]c(=O)c1CSc1ccc(Cl)cc1`, the T/C runs as follows: (dose: 6.25 mg/kg/injection, schedule: Q01DX005 (ip), vehicle: saline with Tween-80) 99 % of control; under setting [4], 97 % of control; under setting [5], 107 % of control; under setting [6], 109 % of control; under setting [7], 111 % of control.

As to `CC(=O)Oc1cccn2c(C(=O)C(=O)c3ccc4c(OC(C)=O)cccn34)ccc12`, the T/C reads like this: under setting [1], 92 % of control; under setting [2], 86 % of control; under setting [3], 94 % of control.

Take `N#Cc1[nH]cnc1O`: the T/C was 103 % of control under setting [6]; 101 % of control under setting [7]; 112 % of control (dose: 200.0 mg/kg/injection, schedule: Q01DX005 (ip), vehicle: saline with Tween-80).

For the compound `CC([NH-])C[NH-].[Br][Pt+2][Br]` (stereo not drawn), the T/C is 158 % of control (dose: 12.5 mg/kg/injection, schedule: Q04DX002 (ip), vehicle: saline with Tween-80) and 174 % of control (dose: 25.0 mg/kg/injection, schedule: Q04DX002 (ip), vehicle: saline with Tween-80).

`Cc1cc(N=Nc2ccc(NC(=O)c3ccc([N+](=O)[O-])cc3)cc2C)ccc1N=Nc1ccc2cc(S(=O)(=O)O)cc(S(=O)(=O)O)c2c1`: the T/C was 102 % of control and 107 % of control and 109 % of control under setting [4]; 109 % of control and 111 % of control and 120 % of control under setting [5]; 111 % of control under setting [7].

Regarding `Cc1[nH]nc2c(=O)n(C)cnc12`, the T/C (dose: 25.0 mg/kg/injection, schedule: Q01DX005 (ip), vehicle: water) was 100 % of control; the T/C (dose: 50.0 mg/kg/injection, schedule: Q01DX005 (ip), vehicle: water) is 94 % of control; the T/C (dose: 100.0 mg/kg/injection, schedule: Q01DX005 (ip), vehicle: water) is 92 % of control; the T/C (dose: 200.0 mg/kg/injection, schedule: Q01DX005 (ip), vehicle: water) is 93 % of control; the T/C (dose: 400.0 mg/kg/injection, schedule: Q01DX005 (ip), vehicle: water) is 91 % of control.

For the compound `NC(N)=O.NC(N)=O.NC(N)=O.NC(N)=O.NC(N)=O.NC(N)=O.[O-][Cl+3]([O-])([O-])O.[Ti+3]`, the T/C was 99 % of control (dose: 50.0 mg/kg/injection, schedule: Q01DX009 (ip), vehicle: saline); 92 % of control (dose: 100.0 mg/kg/injection, schedule: Q01DX009 (ip), vehicle: saline); 86 % of control (dose: 200.0 mg/kg/injection, schedule: Q01DX009 (ip), vehicle: saline).

(Values after PubChem BioAssay AID330 (DTP/NCI, 2004).)
